From BigSolDB 2.1

CN(C)CCC=C1c2ccccc2CCc2ccccc21.Cl
solubility (mole fraction)
Conditions | 278.15 K | 283.15 K | 288.15 K | 293.15 K | 298.15 K | 303.15 K | 308.15 K | 313.15 K | 318.15 K | 323.15 K
in 2-butoxyethanol | 0.0451 | 0.0494 | 0.0531 | 0.0595 | 0.066 | 0.0722 | 0.0793 | 0.0864 | 0.0942 | 0.102
in 2-ethoxyethanol | 0.084 | 0.0895 | 0.0954 | 0.101 | 0.108 | 0.115 | 0.123 | 0.132 | 0.141 | 0.151
in 2-methoxyethanol | 0.127 | 0.132 | 0.138 | 0.143 | 0.149 | 0.155 | 0.162 | 0.169 | 0.177 | 0.185
in 2-propoxyethanol | 0.06 | 0.0641 | 0.0686 | 0.075 | 0.0814 | 0.0881 | 0.0955 | 0.103 | 0.111 | 0.119
in DMF | 0.0295 | 0.0323 | 0.0354 | 0.0388 | 0.0423 | 0.0466 | 0.0509 | 0.0557 | 0.0611 | 0.0674
in NMP | 0.0311 | 0.0342 | 0.0372 | 0.0412 | 0.0448 | 0.0492 | 0.0543 | 0.0594 | 0.0652 | 0.0716
in ethanol | 0.0337 | 0.0423 | 0.0528 | 0.0653 | 0.0794 | 0.0938 | 0.108 | 0.122 | 0.136 | 0.148
in methanol | 0.144 | 0.152 | 0.16 | 0.168 | 0.175 | 0.183 | 0.189 | 0.196 | 0.202 | 0.207
in n-butanol | 0.0148 | 0.0187 | 0.0242 | 0.0316 | 0.0405 | 0.0508 | 0.0628 | 0.0765 | 0.091 | 0.105
in n-heptanol | 0.0101 | 0.0124 | 0.0151 | 0.0184 | 0.0225 | 0.0274 | 0.0333 | 0.0402 | 0.0484 | 0.0581
in n-hexanol | 0.0116 | 0.0145 | 0.0176 | 0.0217 | 0.027 | 0.0332 | 0.0407 | 0.0492 | 0.0595 | 0.0712
in n-octanol | 0.00215 | 0.00267 | 0.00322 | 0.00388 | 0.00471 | 0.00568 | 0.00688 | 0.00824 | 0.00991 | 0.012
in n-pentanol | 0.0127 | 0.0162 | 0.02 | 0.025 | 0.0321 | 0.04 | 0.0497 | 0.0613 | 0.0743 | 0.0887
in n-propanol | 0.0218 | 0.028 | 0.0357 | 0.0453 | 0.0572 | 0.0708 | 0.0855 | 0.101 | 0.117 | 0.131
